Key:
[1] = tested on: RS4;11 cells; test: Inhibition of sCAR-T cell activity by free PNE peptide; assay type: cell-based; conditions: excess soluble peptide with LCNT switch
Excerpt: The non-binding mutated version of the PNE (PNE-X; bar farthest to the right) was, again, used as a control. […] Alanine mutated free peptide (PepX) has no effect. Only the cognate free peptide epitope inhibits cytotoxicity (see FIGS. 26D-F). FIG. 26E-F show live cell imaging (Incucyte, Essen).
Specificity of sCAR-T cell activation is essential to switch-based control.
One of the great advantages of the sCART cell system is that the activity can be controlled. This can be achieved by either dose escalation of the switches or by stopping switch dosing. In the event that the cessation of switch dosing is not an acute enough response to halt sCART cell activity, immunological synapses are disrupted by the administration of free peptide.
Specificity of sCAR-T cell activation is a critical design consideration for switch-based control.

[2] = tested on: RS4;11 (CD19 positive); assay type: cell-based, human
Method: Activity was assessed against NALM-6 (CD19^+), RS4;11 (CD19^+), or RPMI-8226 (CD19^−) (Table 2). The activity of the IgG (FcNull) switch was assessed against RS4;11 (CD19^+), or K562 (CD19^−) (Table 2). The activity of the C-terminal switch was assessed against RS4;11 (CD19^+), or K562 (CD19^−) (Table 4).
sCAR-T cells were co-cultured (96-well plate round bottom; 20-24h; 37° C.; 5% CO2) with RS4;11 (CD19^+) or K562 (CD19^−) cells at a ratio of 10 sCAR-T cells to 1 RS4;11/K562 cell (110,000 cells in total) in 100 uL of RPMI-1640 supplemented with 5% heat inactivated fetal calf serum (Thermo), 1% penicillin-streptomycin (Gibco), 1% L-Glutamine (Gibco), 1 mM sodium pyruvate (Gibco) and 1% non-essential amino acids (Gibco). After 24 hours, each plate was centrifuged at 400×g for 5 minutes at 4° C. To measure target cell lysis, the intracellular protein lactate dehydrogenase (LDH) was measured in the cytotoxicity assay supernatants from the co-cultured cells using the CytoTox 96® Non-Radioactive Cytotoxicity Assay kit (Promega). To measure the effector responses of the sCART cells in vitro, cytokine levels were measured in the cytotoxicity assay supernatants using the Cytometric Bead Array (CBA) Human Th1/Th2 Cytokine Kit II (BD). […]
The GCN4 CAR design was therefore modified to contain the CD8 hinge region (used in CART-19), which has an extracellular CAR domain of approximately 80 Å, and an IgG4 hinge with an extracellular CAR domain of approximately 15-30 Å. An additional construct was developed where a mutation was introduced into the IgG4 hinge that allows for spontaneous disulphide bridge formation between receptor molecules (IgG4m). […] Briefly, activated PBMC were transduced with lentivirus (SEQ ID: 1) containing the anti-PNE CAR construct (SEQ ID: 180) with the CD8 (SEQ ID: 68), IgG4 (SEQ ID: 70) and IgG4m (SEQ ID: 71) hinge domains.
Monovalent and bivalent combinations of these switches were expressed in mammalian protein expression systems (HEK293 or CHO cells) and purified using protein-G columns. Switches were used in cytotoxicity assays at a dose titration within the range of 10 nM to 0.0001 nM. The activity of each switch combination was tested in vitro in the General cytotoxicity assays where LDH release, cytokine production and sCART cell activation were compared (FIGS. 11A-11C).
CAR-T or target cells were incubated with 1 pM to […] of switch in FACS buffer (PBS, 1% FCS, 2 mM EDTA) for 30 minutes at 4° C. before being washed twice and then incubated with the PE-conjugated goat-anti-human kappa antibody (1:100). Cells were washed two times and analyzed using the Accuri flow cytometer (BD). CAR-T cell activity was determined using the CytoTox 96® Non-Radioactive Cytotoxicity Assay (Promega). CAR-T cells were incubated with target cells in the presence of switch for 20-24 hours at 37° C. in complete RPMI with 5% FCS. At the end of the assay, 30 μL of cell free supernatant was added to 30 μL of the LDH assay reagent in a 96-well plate and incubated for 30 minutes at room temperature in the dark; 30 μL of stop solution was added before the plate was read at OD495.

[3] = tested on: Nalm-6^Luc/GFP cells; test: Nalm-6 Luc/GFP leukemia xenograft; assay type: in vivo; conditions: for tumor burden (IVIS): 0.5 mg/kg I.V. every other day for 10 days
Method: NSG mice were inoculated with CD19^+ Nalm-6^GFP/Luc cells. Six days later, 40×10^6 sCAR-T cells were delivered IV and switch dosing commenced every other day at 0.5 mg/kg for 10 days. Tumor burden was followed by luminescence after injection of luciferin and imaged on an in vivo imaging system (IVIS; PerkinElmer, Waltham, Mass., USA).
Asterisks indicate significance from LCNT Fab group. Data are represented as means±SEM, and statistical significance was calculated using the 2-way ANOVA with Bonferroni's post-test (B & E; shown for final time-point only) or by one-tailed student's t-test (C & F) where *=p<0.05, **=p<0.01 and ***=p<0.001.
NSG mice were inoculated with Nalm-6^GFP/Luc as described in FIG. 28. […] A fourth group consisted of two cohorts (n=3) of mice injected I.V. with sCAR-T cells without (−) LCNT Fab switch. LCNT Fab dosing in the indicated group was carried out daily at 0.5 mg/kg after the initial T cell infusion. Luminescence was measured at 6 h and subsequently every 24 h as indicated. Cohorts were sacrificed for analysis immediately following IVIS imaging. […] Gray lines indicate tumor burden in PBS and sCAR-T cell—LCNT Fab controls. […] Data are represented as means±SEM, and statistical significance was calculated using the one-tailed student's t-test (C & D) where *=p<0.05, **=p<0.01 and ***=p<0.001.
NSG mice were inoculated with Nalm6^GFP/Luc and six days later engrafted with short-dimeric sCAR-T cells as described in FIG. 29. […] Dosing was carried out for 15 d starting at day 6 (corresponding with sCAR-T cell infusion) as indicated by gray shading. Control groups CART-19 and PBS received no switch. The NS group received sCAR-T cells but no switch. Open circles denote the death of individual mice without evidence of tumor burden and may reflect GVHD. Triangles in PBS, NS and q.a.d. group indicate death due to increasing tumor burden. […] (19) indicates CART-19. […] (19) indicates CART-19. […] Triangles indicate the death of individual mice with significant tumor burden. The single mouse death in the 0.05 mg/kg group occurred while tumor burden was decreasing. […] Statistical significance was calculated using the one-tailed student's t-test (B, C & E) where *=p<0.05, **=p<0.01 and ***=p<0.001.
The different sCAR designs were tested in a xenograft model harboring luciferized NALM-6 (CD19+, CD80−, CD86−) cells. 1 mg/kg monovalent switch “A” was administered along with sCAR cells. […] Optimized hinge improved response. Short hinge CARs have faster clearance. Short, dimeric hinge CARs have improved persistence. Tumor burden was visualized with IVIS imaging. Experiments are repeated with a humanized scFv and bivalent switches.
Activity of the switchable CAR-T cell platform in vivo was evaluated via tumor regression in a Nalm-6^Luc/GFP leukemia xenograft model in immunodeficient NOD scid gamma (NSG) mice. These mice without treatment succumb to disease within 21 days. The impact of CAR hinge design on in vivo efficacy was determined using mice inoculated with Nalm-6^Luc/GFP, followed by I.V. injection of long, short, or short-dimeric sCAR-T cells 6 days later. The LCNT Fab was dosed I.V. (0.5 mg/kg) every other day for 10 days and tumor regression was followed by in vivo imaging (IVIS) of the luciferase signal from Nalm-6^Luc/GFP cells (FIG. 29A).
The effect of switch grafting position on the control of tumor burden was determined. As with the previous model, short-dimeric CAR-T cells were injected 6 days after tumor inoculation and mice were treated every other day (starting at day 6) with 0.5 mg/kg LCNT, HCNT, NTBV, LCC1, or HCCT Fab switches (FIG. 29D).
To determine the proliferation and localization of sCAR-T cell cytotoxicity during this time interval, mice were sorted into 5 cohorts per treatment regimen and analyzed at 8, 24, 48, 72, and 96 h after treatment with short-dimeric sCAR-T cells+LCNT Fab switch or with conventional CART-19 and no switch. […]

[4] = tested on: Nalm-6^Luc/GFP cells; test: Nalm-6 Luc/GFP leukemia xenograft; assay type: in vivo
[5] = molecular target: GCN4 epitope (7P14P) (Saccharomyces cerevisiae, UniProt P03069); conditions: GCN4 epitope (7P14P) NYHLENEVARLKKL; read-out: dissociation constant (Kd); cited from earlier work
[6] = retreatment 0.5 mg/kg for 10 days

NYHLENEVARLKKL (CAR binding region - yeast transcription factor GCN4) [PNE]
effect of free peptide on sCAR-T cell activity [1]: fully inhibited

anti-CD19 Fab LCNT: FMC63 anti-CD19 Fab, GCN4 peptide on N-terminus of light chain (SEQ ID 36 & 29)
EC50 [2]: 0.9 pM | increase in potency of cytotoxicity [2]: 2.8 fold | increase in maximum target cell lysis ([2]; short-dimeric sCAR vs CD8-based long hinge): > 80% | serum IL-2, INFγ, TNFα at 24 h vs CART-19 ([3]; 0.05 mg/kg every day): significantly lower than CART-19 | duration of sustained tumor regression after dosing had stopped ([3]; 0.5 mg/kg every day or every other day for 15 days): > 100 days | T cell phenotype in peripheral blood (CD45RA, CD62L) ([3]; 0.05 and 0.5 mg/kg, vs […] group): significantly larger populations of CD45RA^−CD62L^+ central memory cells | T cell counts in peripheral blood ([3]; day 17, short-dimeric sCAR-T cells, 0.5 mg/kg every other day): greatest T cell expansion | tumor burden (IVIS) ([3]; long hinge (CD8) sCAR-T cells): minimal impact on disease | time to decrease tumor signal to levels equivalent to CART-19 [3, 6]: ≤ 5 days | tumor-free time after final dose of second dosing period [3, 6]: > 35 days | time of peak human IL-2 in peripheral blood ([3]; sCAR-T + daily 0.5 mg/kg LCNT Fab, or CART-19 without switch): 48 h | tumor burden (IVIS) ([3]; short (IgG4) sCAR-T cells): significant decrease in tumor burden | tumor burden (IVIS) ([3]; short-dimeric (IgG4m) sCAR-T cells): significant decrease in tumor burden | tumor burden (IVIS), switch graft position comparison ([3]; short-dimeric sCAR-T cells, 0.5 mg/kg every other day from day 6): greatest reduction in tumor burden | time to limit of luminescence detection ([3]; short-dimeric sCAR-T cells, daily 0.5 mg/kg): ≤ 96 h | day on which tumor burden reached the limit of detection ([4]; 0.05 mg/kg every day for 10 d): ≤ 16 days | day of tumor relapse ([4]; after 0.05 mg/kg every day for 10 d): 30 days

B1: 52SR4: high affinity anti-GCN4 (7P14P) scFv used as sCAR extracellular domain (protein)
scFv: DAVVTQESALTSSPGETVTLTCRSSTGAVTTSNYASWVQEKPDHLFTGLIGGTNNRAPGVPARFSGSLIGDKAALTITGAQTEDEAIYFCVLWYSDHWVFGGGTKLTVLGGGGGSGGGGSGGGGSGGGGSDVQLQESGPGLVAPSQSLSITCTVSGFLLTDYGVNWVRQSPGKGLEWLGVIWGDGITDYNSALKSRLSVTKDNSKSQVFLKMNSLQSGDSARYYCVTGLFDYWGQGTTLTVSS
Kd [5]: 5.2 pM

From patent publication US11091546B2, “Optimized PNE-based chimeric receptor T cell switches and uses thereof” (The Scripps Research Institute, priority 2015, dated 2021)
